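Method: 48-hour compound exposure of cells in 96-well plates, five concentrations, linear interpolation of endpoints. Abbreviation: GI50, concentration required for 50% inhibition of growth.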 Calls of active or inactive are those of the source. No stated cut-off is given here; in the data, active = GI50 up to about 1.1 µM and inactive = higher.
Assays:
Assay in all cases: NCI-60 cell line screen, 48 h
CAKI-1 = system: CAKI-1
UACC-62 = system: UACC-62
SK-MEL-2 = system: SK-MEL-2
NCI/ADR-RES = system: NCI/ADR-RES
HOP-92 = system: HOP-92
SR = system: SR
HCC 2998 = system: HCC 2998
SK-MEL-28 = system: SK-MEL-28
Malme-3M = system: Malme-3M
HCT-15 = system: HCT-15
KM12 = system: KM12
NCI-H226 = system: NCI-H226
RXF 393 = system: RXF 393
786-0 = system: 786-0
MDA-N = system: MDA-N
SK-OV-3 = system: SK-OV-3
DU-145 = system: DU-145
SK-MEL-5 = system: SK-MEL-5
MDA-MB-435 = system: MDA-MB-435
SNB-75 = system: SNB-75

Row | Structure (SMILES) | GI50 (CAKI-1) | GI50 (UACC-62) | GI50 (SK-MEL-2) | GI50 (NCI/ADR-RES) | GI50 (HOP-92) | GI50 (SR) | GI50 (HCC 2998) | GI50 (SK-MEL-28) | GI50 (Malme-3M) | GI50 (HCT-15) [µM] | GI50 (KM12) | GI50 (NCI-H226) | GI50 (RXF 393) | GI50 (786-0) | GI50 (MDA-N) | GI50 (SK-OV-3) | GI50 (DU-145) | GI50 (SK-MEL-5) | GI50 (MDA-MB-435) | GI50 (SNB-75)
1 | Cc1ccc(C(=O)Cc2nc3ncccc3[nH]c2=O)cc1 | 65.5 µM (inactive) | 49.8 µM (inactive) | > 100 µM (inactive) | 59 µM (inactive) | 14.6 µM (inactive) | 48.5 µM (inactive) | 51.5 µM (inactive) | 32.8 µM (inactive) | 23.2 µM (inactive) | 41.2 | 43.4 µM (inactive) | 24.9 µM (inactive) | 44.2 µM (inactive) | 22.5 µM (inactive) | 74.8 µM (inactive) | 23 µM (inactive) | 58.2 µM (inactive) | 40.8 µM (inactive) | 18.7 µM (inactive) | 
2 | C(=N\c1ccc(-c2nc3ccccc3[nH]2)cc1)/c1ccco1 | > 100 µM (inactive) | 89.7 µM (inactive) | 67.8 µM (inactive) | 84.9 µM (inactive) | 44.1 µM (inactive) | 37.2 µM (inactive) | 76.4 µM (inactive) | > 100 µM (inactive) | > 100 µM (inactive) | 61 | 48.6 µM (inactive) | > 100 µM (inactive) | 73.8 µM (inactive) | > 100 µM (inactive) | 48.1 µM (inactive) |  | > 100 µM (inactive) | 25.5 µM (inactive) | 48.4 µM (inactive) | > 100 µM (inactive)
3 | OC1(C2(c3ccc(Cl)cc3)CCCC2)c2ccccc2C2=NCCN21 (stereo not given) | 14.8 µM (inactive) | 16.1 µM (inactive) |  | 17.1 µM (inactive) | 13.4 µM (inactive) | 18.1 µM (inactive) | 2.4 µM (inactive) | 15.3 µM (inactive) | 17.7 µM (inactive) | 15.6 | 18.1 µM (inactive) | 17.1 µM (inactive) | 1.68 µM (inactive) | 14.3 µM (inactive) | 16.1 µM (inactive) | 18.8 µM (inactive) | 0.0716 µM (active) | 12.4 µM (inactive) | 12.6 µM (inactive) | 3.83 µM (inactive)
4 | N#C[BH2-][n+]1ccc(C(=O)NNCc2ccccc2)cc1 | > 100 µM (inactive) | > 100 µM (inactive) | > 100 µM (inactive) | > 100 µM (inactive) | > 100 µM (inactive) | > 100 µM (inactive) | > 100 µM (inactive) | > 100 µM (inactive) | > 100 µM (inactive) | > 100 | > 100 µM (inactive) | > 100 µM (inactive) | > 100 µM (inactive) | > 100 µM (inactive) | > 100 µM (inactive) |  | > 100 µM (inactive) | > 100 µM (inactive) | > 100 µM (inactive) | > 100 µM (inactive)
5 | O=[N+]([O-])c1cccc(CSc2nc(O)c3nc[nH]c3n2)c1 | > 100 µM (inactive) | 50.1 µM (inactive) | > 100 µM (inactive) | > 100 µM (inactive) | > 100 µM (inactive) | > 100 µM (inactive) |  | > 100 µM (inactive) | > 100 µM (inactive) | > 100 | > 100 µM (inactive) | 79.8 µM (inactive) | > 100 µM (inactive) | > 100 µM (inactive) | > 100 µM (inactive) | > 100 µM (inactive) | > 100 µM (inactive) | > 100 µM (inactive) | > 100 µM (inactive) | > 100 µM (inactive)
6 | CCN(CC)CCC(=O)c1ccc(C)cc1 |  | 28.4 µM (inactive) |  | 25.5 µM (inactive) | 18.2 µM (inactive) | 28 µM (inactive) | 43 µM (inactive) | 16.3 µM (inactive) | 23 µM (inactive) | 18.7 | > 10 µM (inactive) | 28.6 µM (inactive) | 17 µM (inactive) | 17.7 µM (inactive) | 20.7 µM (inactive) | > 100 µM (inactive) | 39.6 µM (inactive) | 13.1 µM (inactive) | 19 µM (inactive) | 11.5 µM (inactive)
7 | O=C(/C=C/c1ccc(O)c(O)c1)OCC(OC(=O)/C=C/c1ccc(O)c(O)c1)C(=O)O (stereo not given) | > 100 µM (inactive) | > 100 µM (inactive) | > 100 µM (inactive) | > 100 µM (inactive) | > 100 µM (inactive) | 21.3 µM (inactive) | > 100 µM (inactive) | > 100 µM (inactive) |  | 47.6 | > 100 µM (inactive) | > 100 µM (inactive) | > 100 µM (inactive) | > 100 µM (inactive) | > 100 µM (inactive) | > 100 µM (inactive) | > 100 µM (inactive) | > 100 µM (inactive) | > 100 µM (inactive) | 63 µM (inactive)
8 | COc1cc2c(cc1OC)[C@@](C)(C(O)C(O)C(C)(C)O)NCC2 (stereo not given in full) | > 100 µM (inactive) | > 100 µM (inactive) | > 100 µM (inactive) | > 100 µM (inactive) | > 100 µM (inactive) | > 100 µM (inactive) |  | > 100 µM (inactive) | > 100 µM (inactive) | > 100 |  | > 100 µM (inactive) | > 100 µM (inactive) | > 100 µM (inactive) | > 100 µM (inactive) | > 100 µM (inactive) | > 100 µM (inactive) | > 100 µM (inactive) | > 100 µM (inactive) | > 100 µM (inactive)

From ChEMBL document CHEMBL1201862, “PubChem BioAssay data set” (2004)
